Counter-ions that a name gives are not always drawn. Like-named read-outs stand apart in the source and are kept apart here.
How the values were obtained:
NUPR1 [1] = biological target: T1, NUPR1 (Homo sapiens, UniProt O60356); assay: Isothermal titration calorimetry (ITC) of compound binding to NUPR1; conditions: 25 °C; for Kd: 20 mM sodium phosphate pH 7, relative error is 20%
T1 construct: made in house; host or cells: E. coli
T1 sequence (O60356 1-82): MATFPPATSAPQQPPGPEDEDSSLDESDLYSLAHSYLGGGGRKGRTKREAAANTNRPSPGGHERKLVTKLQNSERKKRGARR
Protocol: Ligand binding to NUPR1 was determined with a high sensitivity isothermal titration calorimeter Auto-iTC200 (MicroCal–Malvern Instruments, Malvern UK). Protein samples and reference solutions were properly degassed and carefully loaded into the calorimetric cells to avoid bubble formation during stirring. Experiments were performed with freshly prepared buffer-exchanged protein solutions, at 25 °C in 20 mM sodium phosphate pH 7. NUPR1 20 μM solution in the calorimetric cell was titrated with 300–400 μM compound solution. A sequence of 19 injections of 2 μL volume was programmed with a stirring speed of 1000 rpm. The heat evolved after each ligand injection was obtained from the integral of the calorimetric signal. The heat due to the binding reaction was obtained as the difference between the reaction heat and the corresponding heat of dilution, the latter estimated as a constant value throughout the experiment, and included as an adjustable parameter in the analysis. Control experiments (compound injected into buffer) were performed under the same experimental conditions. The association constant (Ka) and the enthalpy change (ΔH) of the binding reaction were obtained through non-linear regression of experimental data to a model for a protein with a single ligand binding site. Experiments were performed in replicates and data were analyzed using in-house developed software implemented in Origin 7 (OriginLab, Northampton, MA).

NUPR1 [2] = biological target: T1, NUPR1; assay: 2D 1H-15N HSQC NMR cross-peak broadening of NUPR1 upon compound addition; assay type: binding; conditions: NUPR1 100 μM : compound 400 μM, 25 °C, pH 4.5
Protocol: The NMR data were acquired at 25 °C, pH 4.5 (acetate buffer), on a Bruker Avance DRX-500 spectrometer equipped with a triple-resonance probe and z-gradients. All spectra were referenced to external TSP.
The 2D ^1H-^15N heteronuclear single-quantum coherence (HSQC) spectra[42] were acquired in the phase sensitive mode for isolated ^15N-labelled NUPR1 (100 μM) or ^15N-labelled NUPR1 (100 μM) in the presence of the corresponding compound (400 μM). […] Frequency discrimination in the indirect dimensions was achieved by using the echo/antiecho-TPPI method. […] The carrier of the ^1H dimension was set at 8.00 ppm, and that of ^15N at 120 ppm. The spectral widths used were 10 and 35 ppm in the ^1H and ^15N dimensions, respectively. Water signal was suppressed with the WATERGATE sequence. Data were zero-filled to double the number of original points in both dimensions, apodized with shifted squared sine-bell functions in the two dimensions and Fourier transformed with the program TopSpin 1.2. Assignments were taken from those previously reported. The intensity of the signals from each row in the HSQC spectra was measured by using TopSpin 2.1 taking into account, as an internal reference, the intensity of the last residue of NUPR1. Only differences in intensity of a particular residue between spectra of the complex (NUPR1:Compound) and that of isolated NUPR1 larger than 10%, were considered significant.

MiaPaCa-2 cells [3] = assay: Colony formation in soft agar (clonogenicity); assay type: cell-based, human; conditions: 10 μM compound
Protocol: Colony formation assay was performed in order to measure the in vitro survival ability of a single cell to grow into a colony in an anchorage-independent growth environment. Briefly, after treating MiaPaCa-2 cells with either the compounds or DMSO (as control) for 24 and 48 h, they were seeded in DMEM complete media at a density of 7 × 10^3 cells in 6-well plates containing a top layer of 0.7% agar and a bottom layer of 1% agar. Plates were incubated at 37 °C for 3 to 4 weeks and then stained with 0.2% crystal violet. […] Comparisons of treatment outcome were tested for statistical significance by using the t-test.

MiaPaCa-2 cells [4] = assay: Wound healing (cell migration) assay; assay type: cell-based, human; conditions: 10 μM, after 48 h
Protocol: Cells (10000 cells/well) were seeded in 24-well plates and grown to confluence. […] Either fresh medium with 10 μM of the corresponding compound were added or DMSO (as control). Cell migration to the wounded region was observed using an automated fluorescence inverted microscope Leica DMI 6000B with MetaMorph MM AF analysis software (Leica Microsystems, Wetzlar, Germany). Images were captured at 0, 24 and 48 h to monitor the wound healing process. The wound areas were measured using ImageJ software (NIH, Bethesda, MD). Comparisons of treatment outcome were tested for statistical significance by using the t-test. Statistical significance was assumed at a p-value lower than 0.05.

[5] = test system: primary murine PDAC cell line WT; assay: Cell viability assay, primary murine PDAC cells, NUPR1 wild-type (WT); assay type: cell-based, mouse; conditions: 6 days
Protocol: (§1) MiaPaCa-2 cells were obtained from ATCC (Manassas, VA) and maintained in Dulbecco’s Modified Eagle’s Medium (DMEM) (Invitrogen, Carlsbad, CA) supplemented with 10% FBS (Foetal Bovine Serum) at 37 °C with 5% CO2. MiaPaCa-2 cells were authenticated using Short Tandem Repeat analysis (LGC Standards GmbH, Wesel, Germany). […]in reagent (Polyplus-transfection, Illkirch, France) was used to perform siRNA transfections according to the manufacturer’s protocol. Scrambled siRNA targeting no known gene sequence was used as negative control. The sequence of NUPR1-specific siRNA-nupr1 r([…])dTdT was previously reported. Knock-out cells were established in the laboratory from a mice model of pancreatic cancer, known as Pdx1-Cre-Kras^G12D/INK4^flox/flox and for those nupr1 was deleted. These cells have been supplied with DMEM (4.5 g/L) and Glutamax (Life Technologies, Carlsbad, CA), supplemented with 10% of FBS.

MiaPaCa-2 cells [6] = assay: Real-time iCELLigence impedance proliferation assay; assay type: cell-based, human; conditions: 10 μM Compound-15 vs 60 nM Gemcitabine, 4 μM Oxaliplatin
Protocol: Cell proliferation was monitored in real-time using the […] system E-Plate (ACEA Biosciences, San Diego, CA). Forty thousand MiaPaCa-2 cells were seeded in each well with fresh DMEM. […] Cells were incubated for another 3 days. The impedance value of each well was automatically monitored by the […] system for 3 days and expressed as a CI (cell index) value.

[7] = test system: human PDAC-derived xenografts (MiaPaCa-2); assay: Subcutaneous MiaPaCa-2 xenograft in NMRI-Nude mice; assay type: in vivo; conditions: for Tumor volume: start 400 mm^3
Protocol: NMRI-Foxn1^nu/Foxn1^nu mice were provided by Janvier Laboratories (Le Genest-Saint-Isle, France). Mice were kept within the Experimental Animal House of the Centre de Cancérologie de Marseille (CRCM) pôle Luminy. All experimental protocols were carried out in accordance with nationally approved guidelines for the treatment of laboratory animals. All experimental procedures on animals were approved by the Comité d’éthique de Marseille numéro 14. Ten millions MiaPaCa-2 cells were inoculated subcutaneously and mice were separated into 3 groups of 6 subjects each. Mice were treated daily with either physiologic serum, 5 mg/kg or 10 mg/kg of the compound when the tumor volume reached approximately 400 mm^3. Every 5 days, the weight and the tumors volumes were measured. Mice were sacrificed after 35 days of treatment.

[8] = test system: primary murine PDAC cell line NUPR1 KO; assay: Cell viability assay, primary murine PDAC cells, NUPR1 knocked-out (KO); assay type: cell-based, mouse; conditions: 6 days
Protocol: as §1

NUPR1/MSL1 interaction = biological target: T2, NUPR1/MSL1 interaction (Homo sapiens, UniProt O60356); assay: Proximity ligation assay (PLA) of NUPR1-MSL1 interaction after Oxaliplatin-induced DNA damage; assay type: cell-based; conditions: 1 to 20 μM compound, Oxaliplatin 10 μM, 24 h
T2 construct: expressed in transfected cells; host or cells: MiaPaCa-2 (human pancreatic cancer cells)
T2 sequence (O60356 1-82): T1 sequence (O60356 1-82)
Protocol: MiaPaCa-2 cells were seeded on coverslips and transfected with 300 ng of DNA (NUPR1-Flag and MSL1-V5) using Fugene HDTM transfection reagent (Roche, Meylan, France). […] Cells were washed twice in PBS, fixed, permeabilized and saturated for 45 min before immunostaining with DuoLink kit (Olink Bioscience, Uppsala, Sweden) following the manufacturer’s protocol. Image acquisition was carried out on a Nikon Eclipse 90i fluorescence microscope (Nikon Instruments, Amsterdam, Netherlands). Images at 40x magnification were analyzed with ImageJ to count the number of red dots which represent NUPR1/MSL1 binding. The reduction in the number of red fluorescent dots is proportional to the inhibition of MSL1-NUPR1 interaction by Compound-15.

MiaPaCa-2 cells [9] = assay: Cell viability assay (CellTiter-Blue), MiaPaCa-2
Protocol: (§2) Cells (10000 cells/well) were plated in 96-well plates with DMEM. Twenty-four hours later, the media were supplemented with 10 μM of Compound and were incubated for another additional six days. Each experiment was performed in duplicate and repeated at least three times. Cell viability was estimated after addition of the CellTiter-Blue viability reagent (Promega, Madrid, Spain) for 1 h according to the protocol provided by the supplier. Cell viability was measured on day 6 and normalized regarding untreated cells rates. Statistical significance was assumed at a p-value lower than 0.05.

MiaPaCa-2 cells [10] = assay: Chemograms of Gemcitabine or Oxaliplatin with or without Compound-15
Protocol: as §2

Row | Structure (SMILES) | Kd (NUPR1 [1]) [µM] | Residues of NUPR1 with NMR-cross-peak broadening affected by binding (NUPR1 [2]) | also measured
1 | CC(C)NCC(O)c1ccc(O)c(O)c1.O=C(O)C(O)C(O)C(=O)O (single isomer, unassigned; (+)) [Compound-9, (+)-Isoproterenol (+)-bitartrate salt] | 4 | Ser9; Ala10; Leu29; Ala33; Gly38; Thr68 | –
2 | CC(C)NCC(O)c1ccc(O)c(O)c1.Cl (single isomer, unassigned; (-)) [compound 5, (-)-Isoproterenol hydrochloride] | 3.9 | Thr68 | –
3 | CC(C)(C)c1ccc(C(O)CCCN2CCC(C(O)(c3ccccc3)c3ccccc3)CC2)cc1 (stereo not shown) [Compound-1, Terfenadine] | 5 | – | –
4 | OCCN1CCN(CCCN2c3ccccc3Sc3ccc(C(F)(F)F)cc32)CC1 [Compound-2, Fluphenazine dihydrochloride] | 2 | Thr68 | –
5 | Fc1ccc(C(c2ccc(F)cc2)N2CCN(C/C=C/c3ccccc3)CC2)cc1 [Compound-6, Flunarizine dihydrochloride] | 3.1 | Ala33; Thr68 | –
6 | CCCCN(CCCC)CCC(O)c1cc2c(Cl)cc(Cl)cc2c2cc(C(F)(F)F)ccc12 (stereo not shown) [Compound-7, Halofantrine hydrochloride] | 3.3 | Thr68 | –
7 | C[C@H](N)[C@H](O)c1ccc(O)c(O)c1 [Compound-8, Levonordefrin] | 1.5 | Ala33; Thr68 | –
8 | CC(C)N1CCN(c2ccc(OCC3COC(Cn4cncn4)(c4ccc(Cl)cc4Cl)O3)cc2)CC1 (stereo not shown) [Compound-11, Terconazole] | – | Thr68 | –
9 | CC(C)(C)CC(C)(C)c1ccc(OCCOCC[N+](C)(C)Cc2ccccc2)cc1 [Compound-13, Benzethonium chloride] | – | – | Colony formation (MiaPaCa-2 cells [3]): completely inhibited colony formation
10 | CN1CCN(CCCN2c3ccccc3Sc3ccc(C(F)(F)F)cc32)CC1 [Compound-15, Trifluoperazine dihydrochloride] | 5.2 | Ala33; Thr68 | ΔG (Gibbs energy of binding) (NUPR1 [1]; pH 7): -7.2 kcal/mol; ΔH of binding (NUPR1 [1]; pH 7): -1.1 kcal/mol; −TΔS of binding (NUPR1 [1]; pH 7): -6.1 kcal/mol; Distance migrated compared to Compound-free cells (MiaPaCa-2 cells [4]): 25%; viability at 10 µM ([5]; Mus musculus, 144 h, WT murine cells): 35%; NUPR1-dependent effect ([5]; difference WT vs KO viability, 10 μM): around 37%; Colony formation (MiaPaCa-2 cells [3]): completely inhibited colony formation; Growth arrest in real-time proliferation compared with Oxaliplatin or Gemcitabine (MiaPaCa-2 cells [6]): stronger growth-arrest; Tumor volume increase compared to the control ([7]; 5 mg/kg daily, two weeks): 50%; Tumor volume ([7]; 5 mg/kg daily, two weeks): 767 ± 196 mm^3; Tumor volume ([7]; 10 mg/kg daily, two weeks): 558 ± 152 mm^3; Tumor growth ([7]; 10 mg/kg daily, up to 4 weeks): rapidly, and almost completely, stopped; viability at 10 µM ([8]; Mus musculus, 144 h, NUPR1 KO murine cells): 72%; NUPR1-independent killing effect ([8]; from KO cell viability, 10 μM): ~28%; NUPR1 and MSL1 interaction (PLA red dots) (NUPR1/MSL1 interaction): interfered in the NUPR1-MSL1 interaction; viability at 10 µM (MiaPaCa-2 cells [9]; Homo sapiens, MIA PaCa-2, 144 h, read-out: Cell viability): 26 ± 7%
11 | Nc1ccn([C@@H]2O[C@H](CO)[C@@H](O)C2(F)F)c(=O)n1 [Gemcitabine] | – | – | IC50 (MiaPaCa-2 cells [10]; Homo sapiens, MIA PaCa-2, 72 h, read-out: IC50 (concentration reducing cell viability to one half)): 0.06 µM; viability at 0.06 µM (MiaPaCa-2 cells [10]; Homo sapiens, MIA PaCa-2, read-out: Cell viability): 41 ± 0.4%
12 | O=C1[O][Pt]2([NH][C@@H]3CCCC[C@H]3[NH]2)[O]C1=O [Oxaliplatin] | – | – | Cell viability (MiaPaCa-2 cells [10]; 4 μM Oxaliplatin alone): 53 ± 0.4%; IC50 (MiaPaCa-2 cells [10]; drug alone, MiaPaCa-2, 3 days): 4 µM; Cell viability (MiaPaCa-2 cells [9]; MiaPaCa-2, 10 μM of each compound, 6 days, normalized to untreated cells): 10 ± 2%
13 | O=C(O)/C=C/c1ccc(O)c(O)c1 [compound 3, Caffeic acid] | 2 | Ala33; Thr68 | –
14 | COC(=O)[C@H]1[C@H]2C[C@@H]3c4[nH]c5cc(OC)ccc5c4CCN3C[C@H]2C[C@@H](OC(=O)c2cc(OC)c(OC)c(OC)c2)[C@@H]1OC [compound 4, Reserpine] | 3.2 | Thr68 | –
15 | CN(C)CCC(c1ccccc1)c1ccccn1 (stereo not shown) [compound 10, Pheniramine maleate] | 4.3 | Ser9; His62; Thr68 | –
16 | CN(C)[C@@H]1C(O)=C(C(N)=O)C(=O)[C@@]2(O)C(O)=C3C(=O)c4c(O)ccc(Cl)c4[C@@](C)(O)[C@H]3C[C@@H]12 [compound 14, Chlortetracycline hydrochloride] | 1.5 | Ala33; Thr68 | –
